One data set relates to L929 cells. Nature of the data set: Cytotoxicity in L929 cells without TNF-α, 24 h, LDH release. Type of data set: cell-based, murine. The following applies: Mus musculus, absence of TNF-α, toxicity, screening step 7, read-out: IC50 L929 (in vitro). On the procedure: The ability of compounds to interfere with specific steps of the necroptosis pathway, as well as inherent cytotoxicity and long-term necroptosis inhibitory effects were evaluated using in vitro necroptosis models (Fig. S1). Firstly, the 110 compounds were tested for their ability to modulate TNF-α-induced MLKL phosphorylation, a key necroptotic effector downstream of RIPK3[13]. […] Membrane integrity was evaluated by both AK and LDH release to exclude potential false positives.
Whole cell extracts were analysed by immunoblotting. […] Data represent mean values ± SEM of three independent experiments normalized to untreated control. Cell viability was assessed using a colorimetric-based readout for LDH release.
Whole cell extracts were analysed by immunoblotting. Data shown are representative blots and quantification of p-MLKL/MLKL ratio from one single experiment, in fold-change from control. […] Data represent mean values ± SEM of three independent experiments normalized to untreated control. Cell viability was assessed using a colorimetric-based readout for LDH release. c In vitro screening results for seven selected compounds at different stages of the HTS cascade. TEXT PRINTED IN THE PICTURE: (C) Nec-1: EC50 [μM] L929 + TNF-α (in vitro): 1.25 (Screening Step: 1; Time Point: 8 h); EC50 [μM] L929 + TNF-α (in vitro): 1.13 (Screening Step: 7; Time Point: 24 h); EC50 [μM] […]

Data set [1] concerns necroptosis proteins in liver tissue. Nature of the data set: p-MLKL/MLKL and p-RIPK3/RIPK3 immunoblot in liver tissue of SIRS mice. It counts as in vivo, mouse. The conditions noted are these: compared with mTNF-α alone; 5 mg/kg i.v. The method, then: Representative blots and quantification of p-RIPK3/RIPK3 and p-MLKL/MLKL ratios in fold-change from control. Blots were normalized to endogenous β-actin.
Further details are provided as Supplementary Information.
Animal studies, injections and monitoring. Male C57BL/6J mice with 18-26 g (Charles River Laboratories International, Inc., Wilmington, MA, USA) were used at the age of 8-14 weeks. Five to seven animals were included in each experimental group. All animal experiments were carried out with the permission of local animal ethical committee in accordance with the EU Directive (2010/63/EU), Portuguese laws (DL113/2013, 2880/2015, 260/2016) and all relevant legislations. Animals received humane care in a temperature-controlled environment with a 12 h light-dark cycle and ad libitum access to pelleted chow and water, complying with the Institute’s guidelines, and as outlined in the “Guide for the Care and Use of Laboratory Animals” prepared by the National Academy of Sciences and published by the National Institutes of Health (NIH publication 86-23 revised 1985). […] Nec-1 was diluted as follows (v/v): 48% PBS 1X, 17% DMSO and 35% PEG 400. […] All injections were administered intravenously (i.v.) in 100 µL volume each.
(In western blotting, separated proteins are transferred to a membrane and probed.)

The next data set deals with MDR1. As to the kind of experiment: MDCK-MDR1 cell-based permeability assay. It counts as in vitro ADME. The conditions noted are these: dog.

For the compound `CN1C(=O)C(Cc2c[nH]c3ccccc23)NC1=S` (centres unmarked) [Nec-1, necrostatin-1], the IC50 (usually the concentration needed to halve the response being measured) in the data set on L929 cells was greater than 100 µM. For the same compound, in data set [1], the “p-MLKL/MLKL ratio in mouse liver tissue” value is “decreased” and the “p-RIPK3/RIPK3 ratio in mouse liver tissue” value was “decreased”. In addition, in the data set with MDR1, the efflux ratio (usually the permeability from basolateral to apical divided by that in the opposite direction, in the common usage) worked out at 0.45.

On to `O=C(c1cnn(Cc2ccccc2)c1)N1CCOc2ccccc2C1` [SN-6109], for which the half-inhibitory concentration (IC50) with L929 cells is greater than 100 µM.

For the origin of these results see publication PMC7026080, “Phenotypic high-throughput screening platform identifies novel chemotypes for necroptosis inhibition” (Cell Death Discovery, 2020).
